From the CheMixHub viscosity set
± gives the uncertainty stated by the source.

Assay: xn = mol fraction of the nth substance listed

CCCCCCO + CCCCCC
Conditions | viscosity [mPa·s]
293.15 K, 100 kPa, x1 = 0.0277 | 0.3397 ± 0.0052
293.15 K, 100 kPa, x1 = 0.05 | 0.3453 ± 0.0053
293.15 K, 100 kPa, x1 = 0.1 | 0.3793 ± 0.0055
293.15 K, 100 kPa, x1 = 0.1976 | 0.4607 ± 0.006
293.15 K, 100 kPa, x1 = 0.2999 | 0.5855 ± 0.0069
293.15 K, 100 kPa, x1 = 0.3999 | 0.7701 ± 0.0086
293.15 K, 100 kPa, x1 = 0.5 | 1.068 ± 0.011
293.15 K, 100 kPa, x1 = 0.6002 | 1.481 ± 0.016
293.15 K, 100 kPa, x1 = 0.7 | 1.971 ± 0.021
293.15 K, 100 kPa, x1 = 0.8 | 2.71 ± 0.029
293.15 K, 100 kPa, x1 = 0.9096 | 3.927 ± 0.044
298.15 K, 100 kPa, x1 = 0.0277 | 0.3247 ± 0.0052
298.15 K, 100 kPa, x1 = 0.05 | 0.329 ± 0.0052
298.15 K, 100 kPa, x1 = 0.1 | 0.3597 ± 0.0054
298.15 K, 100 kPa, x1 = 0.1976 | 0.433 ± 0.0058
298.15 K, 100 kPa, x1 = 0.2999 | 0.5506 ± 0.0067
298.15 K, 100 kPa, x1 = 0.3999 | 0.7084 ± 0.0081
298.15 K, 100 kPa, x1 = 0.5 | 0.9696 ± 0.011
298.15 K, 100 kPa, x1 = 0.6002 | 1.328 ± 0.014
298.15 K, 100 kPa, x1 = 0.7 | 1.765 ± 0.019
298.15 K, 100 kPa, x1 = 0.8 | 2.381 ± 0.026
298.15 K, 100 kPa, x1 = 0.9096 | 3.398 ± 0.038
298.15 K, 101.33 kPa, x2 = 0.1327 | 3.088 ± 0.024
298.15 K, 101.33 kPa, x2 = 0.1854 | 2.578 ± 0.02
298.15 K, 101.33 kPa, x2 = 0.2308 | 2.207 ± 0.017
298.15 K, 101.33 kPa, x2 = 0.3137 | 1.632 ± 0.013
298.15 K, 101.33 kPa, x2 = 0.4404 | 1.072 ± 0.009
298.15 K, 101.33 kPa, x2 = 0.4841 | 0.941 ± 0.008
298.15 K, 101.33 kPa, x2 = 0.6117 | 0.648 ± 0.006
298.15 K, 101.33 kPa, x2 = 0.7122 | 0.501 ± 0.005
298.15 K, 101.33 kPa, x2 = 0.8046 | 0.408 ± 0.004
298.15 K, 101.33 kPa, x2 = 0.8997 | 0.338 ± 0.004
298.15 K, 101.33 kPa, x2 = 0.9493 | 0.309 ± 0.003
303 K, 101.33 kPa, x1 = 0.0995 | 0.3348 ± 0.013
303 K, 101.33 kPa, x1 = 0.1996 | 0.4052 ± 0.013
303 K, 101.33 kPa, x1 = 0.2995 | 0.5115 ± 0.015
303 K, 101.33 kPa, x1 = 0.4012 | 0.6522 ± 0.016
303 K, 101.33 kPa, x1 = 0.5004 | 0.8535 ± 0.019
303 K, 101.33 kPa, x1 = 0.6 | 1.167 ± 0.025
303 K, 101.33 kPa, x1 = 0.6983 | 1.608 ± 0.036
303 K, 101.33 kPa, x1 = 0.7965 | 2.139 ± 0.051
303 K, 101.33 kPa, x1 = 0.8984 | 2.867 ± 0.075
303.15 K, 100 kPa, x1 = 0.0277 | 0.3116 ± 0.0051
303.15 K, 100 kPa, x1 = 0.05 | 0.3153 ± 0.0051
303.15 K, 100 kPa, x1 = 0.1 | 0.343 ± 0.0053
303.15 K, 100 kPa, x1 = 0.1976 | 0.4107 ± 0.0057
303.15 K, 100 kPa, x1 = 0.2999 | 0.5173 ± 0.0065
303.15 K, 100 kPa, x1 = 0.3999 | 0.6524 ± 0.0076
303.15 K, 100 kPa, x1 = 0.5 | 0.885 ± 0.0098
303.15 K, 100 kPa, x1 = 0.6002 | 1.194 ± 0.013
303.15 K, 100 kPa, x1 = 0.7 | 1.569 ± 0.017
303.15 K, 100 kPa, x1 = 0.8 | 2.091 ± 0.023
303.15 K, 100 kPa, x1 = 0.9096 | 2.945 ± 0.033
303.15 K, 101.33 kPa, x2 = 0.0954 | 2.883 ± 0.026
303.15 K, 101.33 kPa, x2 = 0.1918 | 2.18 ± 0.02
303.15 K, 101.33 kPa, x2 = 0.2892 | 1.6 ± 0.015
303.15 K, 101.33 kPa, x2 = 0.3876 | 1.19 ± 0.011
303.15 K, 101.33 kPa, x2 = 0.487 | 0.8951 ± 0.0087
303.15 K, 101.33 kPa, x2 = 0.5874 | 0.6793 ± 0.0068
303.15 K, 101.33 kPa, x2 = 0.689 | 0.5301 ± 0.0054
303.15 K, 101.33 kPa, x2 = 0.7915 | 0.4188 ± 0.0045
303.15 K, 101.33 kPa, x2 = 0.8952 | 0.3557 ± 0.0039
308.15 K, 100 kPa, x1 = 0.0277 | 0.2979 ± 0.005
308.15 K, 100 kPa, x1 = 0.05 | 0.3006 ± 0.0051
308.15 K, 100 kPa, x1 = 0.1 | 0.3256 ± 0.0052
308.15 K, 100 kPa, x1 = 0.1976 | 0.3877 ± 0.0056
